Key:
Type in all cases: in vivo
Sphaerotheca fuliginea [1] = assay: Control test to powdery mildew of cucumber (foliar and soil treatment); details: index 0-10
Sphaerotheca fuliginea [2] = assay: Control test to powdery mildew of cucumber by vapor (filter paper disks)
Method: (1) The first leaves of young cucumber (Cultivar: Matsukaze) planted in pot of 9 cm in diameter were inoculated with spore suspension of Sphaerotheca fuliginea. After the plants were kept in a greenhouse for 2 days, thin cover plates, 15 mm in diameter, were put on the first leaves. Filter paper disks soaked with 80 μl of test solution at a concentration of 31.3, 7.8, 2.0 or 0.5 ppm were put on the plates for 3 days. Disease degrees were observed 14 days after the inoculation.
It is evaluated as + when an inhibition zone was observed around the plate, as ± when the inhibition zone has nearly the same diameter (8 mm) as that of plate or as - when there is no inhibition zone.
(§1) (1) Test methods and evaluation are the same as those in Tests 2, 4 and 6.

Rhizoctonia solani = assay: Control test to damping-off of cucumber (Rhizoctonia solani); details: 31.3 ppm, soil drench, 14 days
Method: (1) The fungus causing damping-off of cucumber seedlings, Rhizoctonia solani or Fusarium oxysporum was cultured on a wheat bran medium at 28° C. for 5 days, which was mixed with sterilized soil and cultured for 2 days to prepare the inoculum. Sterilized soil (150 g) was put into a pot of 9 cm in diameter. The surface of the spot was covered with the above inoculum. […] Twenty cucumber seeds (Cultivar: Matsukaze) were sown 2 days after. The pots were kept at 30°±2° C. for 14 days. The infection was observed 14 days after and disease degree and percent disease degree were obtained by setting an evaluation index for each disease sympton.
(2) Evaluation [formula] wherein a: number of seeds without germination b: number of seedlings showing damping-off c: number of wilted seedlings d: number of seedlings being a little brownish in cotyledons or at the bottom of the stem e: number of uninfected seedlings [formula] wherein a: number of seeds without germination or seedlings with damping-off b: number of wilted seedlings c: number of seedlings being a little brownish in cotyledons or at the bottom of the stem d: number of uninfected seedlings [formula]

Sclerotinia sclerotiorum = assay: Control test to Sclerotinia rot of cucumber
From the text: (1) This test was practised in the same manner as in the above test, control test of Botrytis rot (gray mold) of cucumber, except for using the mycelium of Sclerotinia sclerotiorum as inoculm. The same as in test 2.

[3] = tested on: powdery mildew of cucumber and Borytis rot (gray mold) of cucumber; assay: Comparative test of cis- and trans-isomers; details: cis isomer vs trans isomer, about
From the text: Each cis- and trans-isomers of 1-(4-chlorophenyl)-2-(1,2,4-triazol-1-yl)cyclohexanol (Compound 22 and the trans-isomer)) and 1-(4-fluorophenyl)-2-(1,2,4-triazol-1-yl)cyclohexanol (Compound 28 and the trans-isomer) are subjected to control test to powdery mildew of cucumber and to Borytis rot (gray mold) of cucumber.
as §1

Botrytis cinerea = assay: Control test of Botrytis rot (gray mold) of cucumber

O[C@@]1(c2ccc(F)cc2)CCCC[C@H]1n1cncn1 (relative stereo) [Compound 28, 1-(4-fluorophenyl)-2-(1,2,4-triazol-1-yl)cyclohexanol]
Powdery mildew, Foliar Treatment, Curative Effect (Sphaerotheca fuliginea [1]; Table 9, 0.03 ppm): 0
Powdery mildew, Foliar Treatment, Protective Effect (Sphaerotheca fuliginea [1]; Table 9, 0.03 ppm): 0
Powdery mildew, Foliar Treatment, Curative Effect (Sphaerotheca fuliginea [1]; Table 9, 0.12 ppm): 7 (Disease sign is observed on the leaf in about 20%.)
Powdery mildew, Foliar Treatment, Protective Effect (Sphaerotheca fuliginea [1]; Table 9, 0.12 ppm): 0
Powdery mildew, Foliar Treatment, Curative Effect (Sphaerotheca fuliginea [1]; Table 9, 0.5 ppm): 10
Powdery mildew, Foliar Treatment, Protective Effect (Sphaerotheca fuliginea [1]; Table 9, 0.5 ppm): 5 (Disease sign is observed on the leaf in about 30%.)
Powdery mildew, Soil Treatment, Protective Effect (Sphaerotheca fuliginea [1]; Table 9, 0.5 ppm): 0
Powdery mildew, Foliar Treatment, Curative Effect (Sphaerotheca fuliginea [1]; Table 9, 2.0 ppm): 10
Powdery mildew, Foliar Treatment, Protective Effect (Sphaerotheca fuliginea [1]; Table 9, 2.0 ppm): 10
Powdery mildew, Soil Treatment, Protective Effect (Sphaerotheca fuliginea [1]; Table 9, 2.0 ppm): 9
Powdery mildew, Soil Treatment, Protective Effect (Sphaerotheca fuliginea [1]; Table 9, 7.8 ppm): 10
Powdery mildew, Soil Treatment, Protective Effect (Sphaerotheca fuliginea [1]; Table 9, 31.3 ppm): 10
Foliar Treatment, Curative Effect (Sphaerotheca fuliginea [1]; second Table 4, 0.5 ppm): 5 (Disease sign is observed on the leaf in about 30%.)
Foliar Treatment, Protective Effect (Sphaerotheca fuliginea [1]; second Table 4, 0.5 ppm): 0
Soil Treatment, Protective Effect (Sphaerotheca fuliginea [1]; second Table 4, 0.5 ppm): 0
Foliar Treatment, Curative Effect (Sphaerotheca fuliginea [1]; second Table 4, 2.0 ppm): 9
Foliar Treatment, Protective Effect (Sphaerotheca fuliginea [1]; second Table 4, 2.0 ppm): 5 (Disease sign is observed on the leaf in about 30%.)
Soil Treatment, Protective Effect (Sphaerotheca fuliginea [1]; second Table 4, 2.0 ppm): 5 (Disease sign is observed on the leaf in about 30%.)
Foliar Treatment, Curative Effect (Sphaerotheca fuliginea [1]; second Table 4, 7.8 ppm): 10
Foliar Treatment, Protective Effect (Sphaerotheca fuliginea [1]; second Table 4, 7.8 ppm): 10
Soil Treatment, Protective Effect (Sphaerotheca fuliginea [1]; second Table 4, 7.8 ppm): 10
Foliar Treatment, Curative Effect (Sphaerotheca fuliginea [1]; second Table 4, 31.3 ppm): 10
Foliar Treatment, Protective Effect (Sphaerotheca fuliginea [1]; second Table 4, 31.3 ppm): 10
Soil Treatment, Protective Effect (Sphaerotheca fuliginea [1]; second Table 4, 31.3 ppm): 10
Powdery mildew, Vapor Effect (Sphaerotheca fuliginea [2]; Table 9, 2.0 ppm): -
Powdery mildew, Vapor Effect (Sphaerotheca fuliginea [2]; Table 9, 7.8 ppm): ±
Powdery mildew, Vapor Effect (Sphaerotheca fuliginea [2]; Table 9, 31.3 ppm): +
Disease Degree (Rhizoctonia solani): 8
Percent Disease Control (Rhizoctonia solani): 92%
Percent Disease Control, Curative Spraying (Sclerotinia sclerotiorum; 31.3 ppm): 77%
Percent Disease Control, Protective Spraying (Sclerotinia sclerotiorum; 31.3 ppm): 56%
Percent Disease Control, Curative Spraying (Sclerotinia sclerotiorum; 125 ppm): 97%
Percent Disease Control, Protective Spraying (Sclerotinia sclerotiorum; 125 ppm): 80%
times more effective than the corresponding trans isomer [3]: 4-16 times
Percent Disease Control, Curative Spraying (Botrytis cinerea; Table 2, 31.3 ppm): 48%
Percent Disease Control, Protective Spraying (Botrytis cinerea; Table 2, 31.3 ppm): 40%
Percent Disease Control, Curative Spraying (Botrytis cinerea; Table 2, 125 ppm): 79%
Percent Disease Control, Protective Spraying (Botrytis cinerea; Table 2, 125 ppm): 100%
Gray Mold, Percent Disease Control, Curative Spraying (Botrytis cinerea; Table 9, 7.8 ppm): 30%
Gray Mold, Percent Disease Control, Protective Spraying (Botrytis cinerea; Table 9, 7.8 ppm): 17%
Gray Mold, Percent Disease Control, Curative Spraying (Botrytis cinerea; Table 9, 31.3 ppm): 92%
Gray Mold, Percent Disease Control, Protective Spraying (Botrytis cinerea; Table 9, 31.3 ppm): 70%
Gray Mold, Percent Disease Control, Curative Spraying (Botrytis cinerea; Table 9, 125 ppm): 98%
Gray Mold, Percent Disease Control, Protective Spraying (Botrytis cinerea; Table 9, 125 ppm): 80%
